Where two headings read alike, the source gives them in different places.
How the values were obtained:
Type in all cases: biochemical
JAK2 = molecular target: T1, JAK2 (Homo sapiens, UniProt O60674); assay: JAK2 inhibition (Table 4)
T1 construct: made in house; host or cells: SF9 insect cells (baculovirus)

JAK3 = molecular target: T2, JAK3 (Homo sapiens, UniProt P52333); assay: JAK3 inhibition (Table 4); conditions: read-out: JAK3 Ki
T2 construct: made in house; host or cells: SF9 insect cells (baculovirus)

TYK2 = molecular target: T3, TYK2 (Homo sapiens, UniProt P29597); assay: TYK2 inhibition (Table 4)
T3 construct: made in house; host or cells: SF9 insect cells (baculovirus)
T3 sequence (P29597 873-1187): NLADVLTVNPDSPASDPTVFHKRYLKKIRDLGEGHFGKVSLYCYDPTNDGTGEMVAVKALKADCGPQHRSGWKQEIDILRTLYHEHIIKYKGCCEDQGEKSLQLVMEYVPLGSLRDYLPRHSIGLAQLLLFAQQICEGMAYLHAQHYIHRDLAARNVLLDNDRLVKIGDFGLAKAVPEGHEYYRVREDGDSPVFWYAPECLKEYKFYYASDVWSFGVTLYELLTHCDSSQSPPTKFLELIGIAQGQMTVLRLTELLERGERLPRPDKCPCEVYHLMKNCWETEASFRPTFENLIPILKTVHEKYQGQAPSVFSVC

T1 sequence (O60674 812-1132): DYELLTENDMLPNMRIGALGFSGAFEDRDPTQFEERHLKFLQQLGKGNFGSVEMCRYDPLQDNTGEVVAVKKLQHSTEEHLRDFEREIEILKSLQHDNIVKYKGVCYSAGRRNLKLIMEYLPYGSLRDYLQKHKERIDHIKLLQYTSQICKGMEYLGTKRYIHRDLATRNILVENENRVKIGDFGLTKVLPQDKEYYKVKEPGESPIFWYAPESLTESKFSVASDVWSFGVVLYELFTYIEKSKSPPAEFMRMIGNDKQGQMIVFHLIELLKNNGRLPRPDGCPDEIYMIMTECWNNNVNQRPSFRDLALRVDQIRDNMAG
T2 sequence (P52333 783-1124): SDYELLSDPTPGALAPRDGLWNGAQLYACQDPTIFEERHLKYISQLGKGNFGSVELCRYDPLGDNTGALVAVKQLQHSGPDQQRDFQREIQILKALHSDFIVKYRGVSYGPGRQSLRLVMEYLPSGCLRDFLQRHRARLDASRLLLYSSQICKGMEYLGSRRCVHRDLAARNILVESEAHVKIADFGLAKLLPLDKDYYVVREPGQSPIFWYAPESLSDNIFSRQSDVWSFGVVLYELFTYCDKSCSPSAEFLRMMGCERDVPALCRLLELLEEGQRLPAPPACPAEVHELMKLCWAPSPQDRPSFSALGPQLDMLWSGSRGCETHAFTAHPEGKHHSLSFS

Ki (JAK3) [nM]	Ki (TYK2) [nM]	Ki (JAK2; read-out: JAK2 Ki) [nM]	Compound	Ki (JAK2; JAK2 Ki) [nM]
67.4	17.4	5.51	N#C[C@@H]1CCN([C@H]2CC[C@H](n3cnc4cnc5[nH]ccc5c43)CC2)C1 [Example 596, Trans (R)-1-[4-(6H-1,2,3,5,6-tetraaza-as-indacen-1-yl)-cyclohexyl]-pyrrolidine-3-carbonitrile]	
162	143	35	N#CCC(=O)N1CCC(n2cnc3cnc4[nH]ccc4c32)CC1 [Example 33, 3-Oxo-3-[4-(6H-1,3,5,6-tetraaza-as-indacen-1-yl)-piperidin-1-yl]propionitrile]	
16.4	3.57	1	N#CCCN1CCC(n2cnc3cnc4[nH]ccc4c32)CC1 [Example 58, 3-[4-(6H-1,3,5,6-Tetraaza-as-indacen-1-yl)-piperidin-1-yl]propionitrile]	
206	110	11.9	CC(C)(C)OC(=O)N[C@H]1CC[C@@H](n2cnc3cnc4[nH]ccc4c32)CC1 [Example 288, [4-(6H-1,3,5,6-Tetraaza-as-indacen-1-yl)-cyclohexyl]-carbamic acid tert-butyl ester]	
240	264	97.2	CC1(n2cnc3cnc4[nH]ccc4c32)CCN(CC(F)(F)F)CC1 [Example 752, 1-[4-Methyl-1-(2,2,2-trifluoro-ethyl)-piperidin-4-yl]-1,6-dihydro-1,3,5,6-tetraaza-as-indacene]	
1120	436	137	CN1CCC[C@H]1C(=O)N1CCC(n2cnc3cnc4[nH]ccc4c32)CC1 [Example 78, ((S)-1-Methyl-pyrrolidin-2-yl)-[4-(6H-1,3,5,6-tetraaza-as-indacen-1-yl)-piperidin-1-yl]methanone]	
36.8	13.7	3.5	Cc1nc2cnc3[nH]ccc3c2n1[C@H]1CC[C@H](C(C)(C)O)CC1 [Example 632, 2-[4-(2-Methyl-6H-1,2,3,5,6-tetraaza-as-indacen-1-yl)-cyclohexyl]-propan-2-ol]	
84.1	18.7	2.99	CS(=O)(=O)N1CCC(n2cnc3cnc4[nH]ccc4c32)CC1 [Example 54, 1-(1-Methanesulfonyl-piperidin-4-yl)-1,6-dihydro-1,3,5,6-tetraaza-as-indacene]	
1980	295	94.6	CN1CCCCC1C(=O)N1CCC(n2cnc3cnc4[nH]ccc4c32)CC1 (single isomer, unassigned) [Example 196, (1-Methyl-piperidin-2-yl)-[4-(6H-1,2,3,5,6-tetraaza-as-indacen-1-yl)-piperidin-1-yl]-methanone]	
910	843	238	c1cc2c(ncc3ncn(C4CCC(N5CCOCC5)CC4)c32)[nH]1 (stereo not drawn) [Example 775, 1-(4-Morpholin-4-yl-cyclohexyl)-1,6-dihydro-1,3,5,6-tetraaza-as-indacene]	
4.14	56	3.15	c1ncc(CN2CCC(n3cnc4cnc5[nH]ccc5c43)CC2)cn1 [Example 52, 1-(1-Pyrimidin-5-ylmethyl-piperidin-4-yl)-1,6-dihydro-1,3,5,6-tetraaza-as-indacene]	
976	1900	1100	CC1(n2cnc3cnc4[nH]ccc4c32)CCNCC1 [Example 318, 1-(4-Methyl-piperidin-4-yl)-1,6-dihydro-1,3,5,6-tetraaza-as-indacene]	
82.9	77.8	31.2	N#CCCN[C@H]1CC[C@@H](n2cnc3cnc4[nH]ccc4c32)CC1 [Example 319, 3-[4-(6H-1,3,5,6-Tetraaza-as-indacen-1-yl)-cyclohexylamino]-propionitrile]	

Compound	Ki (JAK3) [nM]	Ki (TYK2) [nM]	Ki (JAK2; read-out: JAK2 Ki) [nM]	Ki (JAK2; JAK2 Ki) [nM]
CS(=O)(=O)NCc1nc2cnc3[nH]ccc3c2n1C1CC2CCC1C2 (stereo not drawn) [Example 894, N-(1-Bicyclo[2.2.1]hept-2-yl-1,6-dihydro-1,3,5,6-tetraaza-as-indacen-2-ylmethyl)-methanesulfonamide]	37.4	6.46		6.18

Reference: patent publication US8461328B2, “Tricyclic heterocyclic compounds, compositions and methods of use thereof” (Genentech, Inc., priority 2010, dated 2013)
